Ten compounds from PubChem BioAssay (NCI) can be followed below.

Assay in all cases: growth of human tumour cells (NCI), 48 h
Assay [1] has as its system HCC-2998 colon.
In assay [2] the test system is HT29 colon.
For assay [3], the system named is M14 melanoma.
The test system of assay [4] is NCI-H226 lung.
The subject of assay [5] is NCI-H522 lung.
Assay [6] deals with OVCAR-3 ovarian.
The test system of assay [7] is SNB-75 CNS.
Assay [8] relates to U251 CNS.
Assay [9] relates to UO-31 renal.
For assay [10], the system named is IGROV1 ovarian.

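48-hour exposure; five concentrations; linearly interpolated endpoints. Here, GI50 denotes the concentration required for 50% inhibition of growth. TGI marks complete inhibition of growth.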

With `O=C1c2cccc([N+](=O)[O-])c2C(=O)c2nccnc21`, the TGI in assay [1] came out at 6.17 µM; in [2], 4.3 µM; in [3] it was 2.96 µM; in assay [4], 4.06 µM; in assay [5], 2.75 µM; in assay [6] it was 3.88 µM. The TGI in assay [7] was found to be 2.35 µM; in assay [8], 4.34 µM; in assay [9], 2.6 µM.
On to `O=C(CN(Cc1ccccc1)Cc1ccccc1)N1CCc2c([nH]c3ccccc23)C1c1cccnc1` (stereo not given), for which the TGI in [1] was greater than 100 µM; in assay [2], 19.7 µM; in assay [10] it was greater than 100 µM; in assay [3] it was 14.2 µM; in assay [5] it was 73.6 µM; in assay [6] it was 34 µM. Moreover, the TGI in [7] is 81.9 µM; in assay [8] it was 26.7 µM; in assay [9] it was 9.54 µM.
Consider `C=C1C(=O)O[C@@H]2C[C@@H]1CC[C@]1(C)O[C@H]1CC/C(C)=C/CC[C@@]2(C)O`, for which the GI50 was 10.6 µM in [1]; 15.4 µM in [2]; 31.7 µM in [10]; 16.8 µM in assay [3]; 21.7 µM in assay [4]; 27.2 µM in [5]. Also, the GI50 in [6] was 23.1 µM; in assay [8] it was 15.5 µM; in [9], 29.5 µM. The TGI in assay [1] was 23.6 µM; in assay [2] it was 31.7 µM; in [10], greater than 100 µM; in assay [3], 35.3 µM; in assay [4], 59.2 µM; in [5], greater than 100 µM. For the same compound, the TGI was 64.1 µM in assay [6], 28.9 µM in [8] and greater than 100 µM in assay [9].
As to `CN(C)CCCOc1ccc(/C=C2/CCC/C(=C/c3ccc(OCCCN(C)C)cc3)C2=O)cc1`, the TGI was determined as 3.12 µM in assay [1]; 6.78 µM in assay [10]; 6.07 µM in [3]; 3.75 µM in assay [5]; 5.56 µM in [6]; 2.61 µM in assay [7]. The TGI in assay [8] was 2.13 µM; in [9], 3.34 µM.
For `CC(=O)OC1CC2C(C)(C)CCC[C@]2(C)C2=C1C(O)=C(C(C)C)C(=O)C2=O` (stereo not given in full), the GI50 in [1] is 0.228 µM; in [10], 1.53 µM; in assay [3], 0.442 µM; in [4], 0.589 µM; in assay [5] it was 1.65 µM; in assay [6], 1.52 µM. Also, the GI50 is 1.2 µM in assay [7], 0.666 µM in assay [8] and 0.638 µM in assay [9]. In addition, the TGI in assay [1] came out at 0.546 µM; in assay [10], 5.52 µM; in assay [3] it was 1.83 µM; in [4], 2.12 µM; in [5], 3.42 µM; in assay [6], 4.53 µM. In addition, the TGI is 3.03 µM in assay [7], 21.7 µM in [8] and 2.06 µM in assay [9].
Regarding `CS(=O)(=O)O[C@H]1C(=O)N(c2cc3c4ccccc4ccc3c3ccccc23)[C@@H]1c1ccccn1`, the GI50 in [1] is 1.25 µM; in [10], 2.14 µM; in [3], 0.317 µM; in assay [4], 5.36 µM; in assay [5], 0.573 µM; in [6], 0.411 µM. The values for the GI50 in [7], in assay [8] and in [9] were 0.248 µM, 0.685 µM and 0.76 µM, respectively. Further, the TGI in [1] is greater than 100 µM; in assay [10], greater than 100 µM; in assay [3], 5.23 µM; in assay [4], greater than 100 µM; in assay [5], greater than 100 µM; in assay [6], 14.9 µM. Besides, the TGI in assay [7], in assay [8] and in assay [9] was greater than 100 µM each time.
For `CCOC(=O)NC(=O)c1cn(CCCCCCCCCCC(=O)NCCCN2CCN(CCCNC(=O)CCCCCCCCCCn3cc(C(=O)NC(=O)OCC)c(=O)[nH]c3=O)CC2)c(=O)[nH]c1=O`, the TGI in assay [1] was greater than 100 µM; in [2], greater than 100 µM; in [3], greater than 10 µM; in [5], greater than 10 µM; in assay [6], greater than 10 µM; in assay [7], greater than 100 µM. For the same compound, the TGI in assay [8] and in assay [9] was greater than 100 µM each time.
Take `CN1C(=O)/C(=C2\S/C(=N\c3nnc(-c4ccccc4)o3)NC2=O)c2ccccc21`: the GI50 in assay [1] is greater than 100 µM; in assay [2], greater than 100 µM; in [10] it was 59.9 µM; in assay [3], greater than 100 µM; in [5] it was greater than 100 µM; in assay [6] it was greater than 100 µM. Besides, the GI50 was greater than 100 µM in [7], 66.4 µM in assay [8] and greater than 100 µM in assay [9]. The TGI in [1], in assay [2], in assay [10], in assay [3], in [5] and in assay [6] was greater than 100 µM each time. The TGI in [7], in assay [8] and in assay [9] was greater than 100 µM throughout.
As for `Clc1ccc(-c2nc3c(-c4ccccc4)nc(-c4ccccc4)cn3c2-c2ccc(Cl)cc2)cc1`, the GI50 in assay [1], in assay [2], in [10], in [3], in [5] and in assay [6] was greater than 100 µM in each case. Also, the GI50 is 91.4 µM in assay [7], greater than 100 µM in [8] and greater than 100 µM in assay [9]. For the same compound, the TGI in [1], in assay [2], in assay [10], in assay [3], in [5] and in assay [6] was greater than 100 µM throughout. The TGI in assay [7], in assay [8] and in assay [9] was greater than 100 µM throughout.
Consider `COC(=O)C(=NNc1ccccc1[N+](=O)[O-])C(=O)OC`, for which the TGI in assay [1], in [2], in assay [10], in assay [4], in assay [5] and in [8] was greater than 100 µM throughout.
